According to patent US6399766B2, “4-halogenated steroids, their preparation process and intermediates, their use as medicaments and the pharmaceutical compositions containing them” (Aventis Pharma S.A., priority 1997, dated 2002):

Tests used:
[1] = test system: MCF-7 human mammary cells; experiment: Effect on the proliferation of mammary cells; format: cell-based; parameters: key: Mixed: slight agonist activity at very low concentrations and an inhibitory activity at higher concentrations; details: 7 days culture, steroid-free medium, DNA determination; oestradiol at 10^−10M = 100% agonist activity
Text: PHARMACOLOGICAL TESTS Effect on the proliferation of mammary cells The proliferative activity of the molecules is studied in comparison to that of oestradiol on MCF-7 human mammary cells in culture. In order to reveal an agonist effect of the oestradiol and/or the tested molecules, the cell maintenance culture (rich in growth factors and steroids) is replaced by an impoverished medium, amongst others free of steroids (DMEM supplemented with 5% of steroid-free serum and without phenol red). Cells undergo this severance two days before the start of the test. After 7 days culture in the presence of the products to be studied, the cell proliferation is evaluated by determination of the DNA. In each test, the effect of the oestradiol at 10^−10M (cell growth in the presence of oestradiol less cell growth in the presence of the solvent) determines the 100% agonist activity. The activity of the molecules is evaluated in comparison to this internal control.

[2] = test system: ovariectomized female rat; experiment: Bone impact study in the ovariectomized female rat at the age of 3 months (tibia BMD, uterus weight, seric cholesterol); format: in vivo; details: OVX rat, 4 weeks; for TIBIA BONE BMD %: (product BMD - OVX BMD)x100/(SHAM BMD - OVX BMD); for UTERUS Weight %: increase in % of uterus weight of OVX animals receiving only solvent; for Cholesterol %: seric cholesterol, % relative to OVX animals receiving only solvent
Protocol: Bone impact study of a product in the ovariectomized female rat at the age of 3 months Compounds A, B, C, D, E are tested in order to determine their effect on the bone mass and on the formation and resorption activity in the model of the ovariectomized rat at the age of 3 months. […] The study is carried out with female rats ovariectomized at the age of 3 months. The animals are kept in an air conditioned room (temperature 20° C.±2° C.) and grouped by 4 into boxes. The animals receive, ad libitum, demineralized water and compressed foods (pellets: AO4CR-10 UAR). The 3 month old female rats weighing approximately 250 g are ovariectomized under anaesthesia with Imalgene 1000, at a dose of 100 mg/kg by intraperitoneal route (i.p.) and under a volume of 1 ml/kg. They also receive Nembutal (3 mg/kg i.p. under a volume of 0.3 ml/kg). After lateral incision, cutaneous and muscular planes are sectioned. The exeresis of each ovary is carried out after ligature of the oviduct. The “SHAM” control rats are anaesthetised under the same conditions. After incision of the cutaneous and muscular planes, each ovary is exposed then replaced in situ. The effects of the products are determined in a preventive treatment. They are administered immediately after the ovariectomy. Animals distributed into groups of 8. Group 1: “SHAM” control rats receiving the vehicle or vehicles Group 2: “OVX” control rats receiving the vehicle or vehicles. Groups X: “OVX” rats receiving respectively defined doses of the product or products to be tested. At the end of 4 weeks (duration of the study) the animals are decapitated by guillotine. The serums collected after centrifugation are preserved at −20° C. A lipidic balance will be established from the serous determinations of total cholesterol, of triglycerides and of phospholipids on a 500 μl aliquot of serum. The lowering of the seric cholesterol level is expressed in % relative to the level shown by the ovariectomized animals receiving only the solvent. The uteri are removed. The latter are weighed. The increase in weight is expressed in % of the weight of the uterus of ovariectomized animals receiving only the solvent. The bone mass (BMD or Bone mineral density) is measured by biphotonic dual energy X-ray absorptiometry (DEXA). The measurements are carried out on bone excized and cleaned of all soft tissue. The BMD (Bone mineral density) is measured on the whole bone as well as on the metaphyseal part at the level of the proximal extremity for the left tibia. This zone is defined as being the region which is richest in trabecular bone; and consequently, is the most sensitive to variations in bone volume and bone mineral density. The results are expressed in % according to the formula: Tested product BMD - OVX BMD ×100/SHAM BMD - OVX BMD

| Structure (SMILES) | ACTIVITY (proliferative activity on MCF-7 cells) [1] | TIBIA BONE BMD % ([2]; 0.3 mg/kg po) [%] | UTERUS Weight % ([2]; 0.3 mg/kg po) [%] | Cholesterol % ([2]; 0.3 mg/kg po) [%] | TIBIA BONE BMD % ([2]; 1.0 mg/kg po) [%] | UTERUS Weight % ([2]; 1.0 mg/kg po) [%] | Cholesterol % ([2]; 1.0 mg/kg po) [%] | TIBIA BONE BMD % ([2]; 0.1 mg/kg s.c.) [%] | UTERUS Weight % ([2]; 0.1 mg/kg s.c.) [%] | Cholesterol % ([2]; 0.1 mg/kg s.c.) [%] |
| --- | --- | --- | --- | --- | --- | --- | --- | --- | --- | --- |
| C[C@]12C[C@H](c3ccc(OCCN4CCCCC4)cc3)[C@@H]3c4ccc(O)c(Cl)c4CC[C@H]3[C@@H]1CCC2=O [Example 1, 4-chloro-3-hydroxy-11beta-[4-[2-(1-piperidinyl)ethoxy]phenyl]-estra-1,3,5 (10)-trien-17-one] | Mixed | 57 | 55 | −50 | 64 | 55 | −48 | – | – | – |
| CCN(CC)CCOc1ccc([C@H]2C[C@]3(C)[C@@H](O)CC[C@H]3[C@@H]3CCc4c(ccc(O)c4Cl)[C@H]32)cc1 [Example 20, 4-chloro-11beta-[4-[2-(diethylamino)ethoxy]phenyl]-estra-1,3,5 (10)-triene-3,17beta-diol] | Mixed* | 69 | 60 | −43 | 74 | 50 | −40 | – | – | – |
| C[C@]12C[C@H](c3ccc(OCCN4CCCCC4)cc3)[C@@H]3c4ccc(O)c(Cl)c4CC[C@H]3[C@@H]1CC[C@@H]2O [Example 22, 4-chloro-11β-[4-[2-(1-piperidinyl)ethoxy]phenyl]-estra-1,3,5(10)-triene-3,17beta-diol] | Inactive | 63 | 57 | −52 | – | – | – | – | – | – |
| C[C@]12C[C@H](c3ccc(OCCN4CCCC4)cc3)[C@@H]3c4ccc(O)c(Cl)c4CC[C@H]3[C@@H]1CC[C@@H]2O [Example 23, 4-chloro-11β-[4-[2-(1-pyrrolidinyl)ethoxy]phenyl]-estra-1,3,5(10)-triene-3,17beta-diol] | Mixed | 67 | 64 | −53 | 71 | 74 | −53 | – | – | – |
| CC1(O)CCC2C3CCc4c(ccc(O)c4Cl)C3C(c3ccc(OCCN4CCCCC4)cc3)CC21C (stereo not drawn) [Example 30, 4-chloro-17alpha-methyl-11β-[4-[2-(1-piperidinyl)ethoxy]phenyl]-estra-1,3,5(10)-triene-3,17beta-diol.] | Mixed | 52 | 68 | −51 | 71 | 55 | −48 | – | – | – |
| C[C@]12CC[C@@H]3c4ccc(O)cc4CC[C@H]3[C@@H]1CC[C@@H]2O [Oestradiol, 17β oestradiol, reference compound] | Agonist | – | – | – | – | – | – | 105 | 359 | −35 |
